Experiments:
[1] = target: T1, human mAChR M1 (Homo sapiens, UniProt P11229); experiment: mAChR M1 cell-based functional assay (calcium mobilization), PAM mode: increase in the EC20 acetylcholine response
T1 sequence (P11229 1-460): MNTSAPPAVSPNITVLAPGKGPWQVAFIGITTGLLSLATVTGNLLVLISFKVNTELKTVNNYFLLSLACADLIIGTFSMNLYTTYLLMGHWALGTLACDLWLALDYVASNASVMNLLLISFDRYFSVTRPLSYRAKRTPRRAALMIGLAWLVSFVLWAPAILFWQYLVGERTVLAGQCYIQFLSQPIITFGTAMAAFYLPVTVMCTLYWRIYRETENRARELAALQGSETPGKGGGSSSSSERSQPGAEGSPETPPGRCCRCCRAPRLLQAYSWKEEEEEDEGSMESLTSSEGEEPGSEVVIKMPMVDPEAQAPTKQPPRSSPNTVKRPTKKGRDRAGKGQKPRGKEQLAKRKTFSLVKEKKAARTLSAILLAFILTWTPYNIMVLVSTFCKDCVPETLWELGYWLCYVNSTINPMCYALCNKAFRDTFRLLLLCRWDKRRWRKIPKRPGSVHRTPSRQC
Method in brief: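 PAM readout is the concentration-dependent rise in the EC20 acetylcholine calcium signal, fitted to a four-parameter logistic (EC50, Emax). Compounds were preincubated from 4 s before ACh at 144 s (EC20) and 230 s (EC80). hM1-expressing CHO-K1 cells loaded with Fluo-4, FDSS ratio read.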

[2] = target: T1, human mAChR M1; experiment: mAChR M1 cell-based functional assay (calcium mobilization), agonist mode: compound alone, Emax relative to acetylcholine maximum; details: for Agonist Activity Human M1 EC50 / EC50: human mAChR M1; for Emax: relative to the maximum for acetylcholine
Method in brief: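 Agonist activity is the concentration-dependent rise in intracellular calcium (Fluo-4, 1 Hz read) after compound addition, measured before any acetylcholine was added, in stable hM1 CHO-K1 cells. Curves were 11-point, 1:3 dilutions fitted by four-parameter logistic. Emax is given as a fraction of maximal acetylcholine response.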

Structure (SMILES) | EC50 [1] [µM] | Emax [1] [%] | Agonist Activity Human M1 EC50 [2] | Emax [2] [%] | EC50 [2] [µM]
[2H]C1([2H])c2ncccc2C(=O)N1Cc1c(F)cc(-c2cc(F)c(F)c3nn(C)cc23)cc1F [Compound 105, 6-(4-(6,7-difluoro-2-methyl-2H-indazol-4-yl)-2,6-difluorobenzyl)-6,7-dihydro-5H-pyrrolo[3,4-b]pyridin-5-one-7,7-d2] | 0.195 | 27 | Inactive | 2 | –
[2H]C1([2H])c2ncccc2C(=O)N1Cc1c(F)cc(-c2cc(F)c(F)c3nn(C([2H])([2H])[2H])cc23)cc1F [Compound 106, 6-(4-(6,7-difluoro-2-(methyl-d3)-2H-indazol-4-yl)-2,6-difluorobenzyl)-6,7-dihydro-5H-pyrrolo[3,4-b]pyridin-5-one-7,7-d2] | 0.14 | 30 | Inactive | 2 | –
[2H]C([2H])([2H])Oc1ccc(-c2ccc(CN3C(=O)c4cccnc4C3([2H])[2H])c(F)c2)c2cn(C)nc12 [Compound 107, 6-(2-fluoro-4-(7-(methoxy-d3)-2-methyl-2H-indazol-4-yl)benzyl)-6,7-dihydro-5H-pyrrolo[3,4-b]pyridin-5-one-7,7-d2] | 0.227 | 74 | – | 16 | 5.46
[2H]C1([2H])c2ncccc2C(=O)N1Cc1ccc(-c2ccc(OCC)c3nn(C)cc23)cc1F [Compound 108, 6-(4-(7-ethoxy-2-methyl-2H-indazol-4-yl)-2-fluorobenzyl)-6,7-dihydro-5H-pyrrolo[3,4-b]pyridin-5-one-7,7-d2] | 0.381 | 74 | Inactive | 8 | –
[2H]C1([2H])c2ncccc2C(=O)N1Cc1ccc(-c2ccc(OC(C)C)c3nn(C)cc23)cc1F [Compound 109, 6-(2-fluoro-4-(7-isopropoxy-2-methyl-2H-indazol-4-yl)benzyl)-6,7-dihydro-5H-pyrrolo[3,4-b]pyridin-5-one-7,7-d2] | 0.167 | 73 | – | 17 | 5.43
[2H]C1([2H])c2ncccc2C(=O)N1Cc1ccc(-c2ccc(OC(F)(F)F)c3nn(C)cc23)cc1F [Compound 110, 6-(2-fluoro-4-(2-methyl-7-(trifluoromethoxy)-2H-indazol-4-yl)benzyl)-6,7-dihydro-5H-pyrrolo[3,4-b]pyridin-5-one-7,7-d2] | 1.44 | 71 | Inactive | 4 | –
[2H]C([2H])([2H])Oc1cnc2c(c1)C(=O)N(Cc1ccc(-c3ccc4nn(C)cc4c3)cc1F)C2([2H])[2H] [Compound 111, 6-(2-fluoro-4-(2-methyl-2H-indazol-5-yl)benzyl)-3-(methoxy-d3)-6,7-dihydro-5H-pyrrolo[3,4-b]pyridin-5-one-7,7-d2] | 0.161 | 65 | Inactive | 2 | –
[2H]C([2H])([2H])Oc1cnc2c(c1)C(=O)N(Cc1c(F)cc(-c3ccc4nn(C)cc4c3)cc1F)C2([2H])[2H] [Compound 112, 6-(2,6-difluoro-4-(2-methyl-2H-indazol-5-yl)benzyl)-3-(methoxy-d3)-6,7-dihydro-5H-pyrrolo[3,4-b]pyridin-5-one-7,7-d2] | 0.076 | 63 | Inactive | 2 | –
[2H]C1([2H])c2ncccc2C(=O)N1Cc1c(F)cc(-c2ccc(OCCOC)c3nn(C)cc23)cc1F [Compound 113, 6-(2,6-difluoro-4-(7-(2-methoxyethoxy)-2-methyl-2H-indazol-4-yl)benzyl)-6,7-dihydro-5H-pyrrolo[3,4-b]pyridin-5-one-7,7-d2] | 0.188 | 75 | – | 41 | 5.87
[2H]C1([2H])c2ncccc2C(=O)N1Cc1c(F)cc(-c2ccc(OCCOC)c3nn(C([2H])([2H])[2H])cc23)cc1F [Compound 114, 6-(2,6-difluoro-4-(7-(2-methoxyethoxy)-2-(methyl-d3)-2H-indazol-4-yl)benzyl)-6,7-dihydro-5H-pyrrolo[3,4-b]pyridin-5-one-7,7-d2] | 0.162 | 77 | – | 43 | 8.01
[2H]C1([2H])c2ncccc2C(=O)N1Cc1c(F)cc(-c2ccc(OC3CCC3)c3nn(C)cc23)cc1F [Compound 125, 6-(4-(7-cyclobutoxy-2-methyl-2H-indazol-4-yl)-2,6-difluorobenzyl)-6,7-dihydro-5H-pyrrolo[3,4-b]pyridin-5-one-7,7-d2] | 0.382 | 72 | – | 14 | ≥ 10

Next, values leading:

EC50 [1] [µM] | Emax [1] [%] | Agonist Activity Human M1 EC50 [2] | Emax [2] [%] | EC50 [2] [µM] | Structure (SMILES)
0.68 | 68 | Inactive | 6 | – | [2H]C1([2H])c2ncccc2C(=O)N1Cc1c(F)cc(-c2cnc3nn(C([2H])([2H])[2H])cc3c2)cc1F [Compound 115, 6-(2,6-difluoro-4-(2-(methyl-d3)-2H-pyrazolo[3,4-b]pyridin-5-yl)benzyl)-6,7-dihydro-5H-pyrrolo[3,4-b]pyridin-5-one-7,7-d2]
0.287 | 72 | – | 21 | 9.43 | [2H]C1([2H])c2ncccc2C(=O)N1Cc1ccc(-c2ccc(OCCOC)c3nn(C)cc23)cc1F [Compound 116, 6-(2-fluoro-4-(7-(2-methoxyethoxy)-2-methyl-2H-indazol-4-yl)benzyl)-6,7-dihydro-5H-pyrrolo[3,4-b]pyridin-5-one-7,7-d2]
0.317 | 70 | – | 21 | ≥ 10 | [2H]C1([2H])c2ncccc2C(=O)N1Cc1ccc(-c2ccc(OCCOC)c3nn(C([2H])([2H])[2H])cc23)cc1F [Compound 117, 6-(2-fluoro-4-(7-(2-methoxyethoxy)-2-(methyl-d3)-2H-indazol-4-yl)benzyl)-6,7-dihydro-5H-pyrrolo[3,4-b]pyridin-5-one-7,7-d2]
0.527 | 66 | – | 16 | ≥ 10 | [2H]C1([2H])c2ncccc2C(=O)N1Cc1ccc(-c2cnc3nn(C([2H])([2H])[2H])cc3c2)cc1F [Compound 118, 6-(2-fluoro-4-(2-(methyl-d3)-2H-pyrazolo[3,4-b]pyridin-5-yl)benzyl)-6,7-dihydro-5H-pyrrolo[3,4-b]pyridin-5-one-7,7-d2]
≥ 10 | 63 | Inactive | 3 | – | [2H]C1([2H])c2ncccc2C(=O)N1Cc1c(F)cc(-c2cncc3nn(C)cc23)cc1F [Compound 119, 6-(2,6-difluoro-4-(2-methyl-2H-pyrazolo[3,4-c]pyridin-4-yl)benzyl)-6,7-dihydro-5H-pyrrolo[3,4-b]pyridin-5-one-7,7-d2]
2.82 | 66 | Inactive | 2 | – | [2H]C1([2H])c2ncccc2C(=O)N1Cc1ccc(-c2cncc3nn(C)cc23)cc1F [Compound 120, 6-(2-fluoro-4-(2-methyl-2H-pyrazolo[3,4-c]pyridin-4-yl)benzyl)-6,7-dihydro-5H-pyrrolo[3,4-b]pyridin-5-one-7,7-d2]
2.92 | 55 | Inactive | 3 | – | [2H]C1([2H])c2ncccc2C(=O)N1Cc1c(F)cc(-c2cnc(OC)c3nn(C)cc23)cc1F [Compound 121, 6-(2,6-difluoro-4-(7-methoxy-2-methyl-2H-pyrazolo[3,4-c]pyridin-4-yl)benzyl)-6,7-dihydro-5H-pyrrolo[3,4-b]pyridin-5-one-7,7-d2]
0.789 | 77 | Inactive | 3 | – | [2H]C1([2H])c2ncccc2C(=O)N1Cc1c(F)cc(-c2ccc(C3CC3)c3nn(C)cc23)cc1F [Compound 122, 6-(4-(7-cyclopropyl-2-methyl-2H-indazol-4-yl)-2,6-difluorobenzyl)-6,7-dihydro-5H-pyrrolo[3,4-b]pyridin-5-one-7,7-d2]
0.49 | 80 | – | 11 | 7.93 | [2H]C1([2H])c2ncccc2C(=O)N1Cc1c(F)cc(-c2ccc(C(F)F)c3nn(C)cc23)cc1F [Compound 123, 6-(4-(7-(difluoromethyl)-2-methyl-2H-indazol-4-yl)-2,6-difluorobenzyl)-6,7-dihydro-5H-pyrrolo[3,4-b]pyridin-5-one-7,7-d2]
0.243 | 74 | – | 32 | 8.27 | [2H]C1([2H])c2ncccc2C(=O)N1Cc1c(F)cc(-c2ccc(OC3CC3)c3nn(C)cc23)cc1F [Compound 124, 6-(4-(7-cyclopropoxy-2-methyl-2H-indazol-4-yl)-2,6-difluorobenzyl)-6,7-dihydro-5H-pyrrolo[3,4-b]pyridin-5-one-7,7-d2]
